Measurements from patent US20060094786A1, “Treating syndrome X with substituted tetralins and indanes” (priority 2002, published 2006).

Legend:
PPARα = biological target: T1, PPARα (Rattus norvegicus, UniProt P37230); assay: HD bDNA Assay (HD gene induction, H4IIE rat hepatoma cell line); format: cell-based; conditions: assay not named, values equal the PPARα column
T1 construct: H4IIE rat hepatoma cell line was obtained from ATCC; host or cells: H4IIE rat hepatoma cells
T1 sequence (P37230 1-468): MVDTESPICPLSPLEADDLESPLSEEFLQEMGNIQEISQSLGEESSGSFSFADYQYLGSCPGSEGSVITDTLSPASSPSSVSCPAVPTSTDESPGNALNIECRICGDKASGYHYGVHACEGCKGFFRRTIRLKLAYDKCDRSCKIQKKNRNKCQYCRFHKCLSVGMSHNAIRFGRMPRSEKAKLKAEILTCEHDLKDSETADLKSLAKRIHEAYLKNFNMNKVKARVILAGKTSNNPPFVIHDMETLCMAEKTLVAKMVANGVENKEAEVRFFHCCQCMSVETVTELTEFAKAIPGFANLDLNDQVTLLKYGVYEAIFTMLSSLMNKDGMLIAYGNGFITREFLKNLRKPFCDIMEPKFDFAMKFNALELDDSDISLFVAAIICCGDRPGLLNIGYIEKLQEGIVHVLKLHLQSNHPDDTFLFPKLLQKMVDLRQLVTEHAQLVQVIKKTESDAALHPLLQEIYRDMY
Experimental: H4IIE rat hepatoma cell line was obtained from ATCC. Cells were cultured in 175 cm^2 tissue culture flask or seeded in 96-well plate with (high serum content, 10% fetal bovine serum and 10% calf serum) culture medium and maintained at 37° C. and 5% CO2 throughout study. Twenty-four hours after the initial seeding of the 96-well plate by hand (approximate 100,000/well), the HD gene induction assay was initiated. Media was removed and replaced with 100 ul of low serum culture media (5% charcoal/dextran treated calf serum) containing vehicle (DMSO) or test compounds or standard. Cells returned to incubator for 24 hours culture. At the termination of the challenge, 50 ul lysis buffer with HD gene specific CE, LE, BL probes was added directly into each well to initiate the is bDNA HD mRNA assay. The branched DNA assay was performed according to the manufacturer's protocol (Bayer Diagnostics; Emeryville. Calif.). At the end of the assay, the luminescence was quantitated in Dynex MLX microtiter plate luminometer. EC50's were determined by non-linear regression with a sigmoidal fit utilizing Graphpad Prism.

PPARγ = biological target: T2, PPARγ (Homo sapiens, UniProt P37231); assay: aP2 Assay for PPAR Gamma Agonists (bDNA aP2 mRNA, preadipocytes); format: cell-based; conditions: for PPARγ FI: fold induction, unbracketed values, PPARγ standard FI = 70.3
T2 construct: Following the challenge of the preadipocytes, cells may be lysed with lysis buffer; endogenous in cells; host or cells: preadipocytes
T2 sequence (P37231 1-505): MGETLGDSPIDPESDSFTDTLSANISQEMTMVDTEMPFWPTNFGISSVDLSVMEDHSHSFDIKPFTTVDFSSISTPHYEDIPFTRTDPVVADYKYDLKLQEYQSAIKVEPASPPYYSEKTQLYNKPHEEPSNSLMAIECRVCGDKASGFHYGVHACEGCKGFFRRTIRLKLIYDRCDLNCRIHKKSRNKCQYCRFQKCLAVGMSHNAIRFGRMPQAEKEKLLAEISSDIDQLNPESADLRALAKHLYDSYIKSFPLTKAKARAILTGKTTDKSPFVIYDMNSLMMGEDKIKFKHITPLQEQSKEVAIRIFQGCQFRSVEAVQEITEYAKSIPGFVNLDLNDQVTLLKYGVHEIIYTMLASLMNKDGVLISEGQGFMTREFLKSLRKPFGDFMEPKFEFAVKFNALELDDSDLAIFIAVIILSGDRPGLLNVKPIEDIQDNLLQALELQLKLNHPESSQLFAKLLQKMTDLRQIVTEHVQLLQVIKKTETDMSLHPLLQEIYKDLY
Excerpt: aP2 Assay for PPAR Gamma Agonists
The procedure is described in detail in Burris et al., Molecular Endocrinology 1999, 13:410, which is hereby incorporated by reference in its entirety, and aP2 assay results of agonist intrinsic activity may be presented as fold increase over vehicle in induction of aP2 mRNA production.
Twenty-four hours after the initial seeding of the 96-well plates by hand (around 20,000/well), the differentiation assay may be initiated. Medium may be removed and replaced with 150 μl of differentiation medium containing vehicle (DMSO) or test compounds. Cells may be returned to incubator for 24 hours culture. At the termination of the challenge, medium may be removed and 100 ul of lysis buffer may be added to initiate the bDNA aP2 mRNA assay. The branched DNA assay may be performed according to the manufacturer's protocol (Bayer Diagnostics; Emeryville, Calif.). Result may be expressed as the fold increase of aP2 mRNA production activated over vehicle controls. EC50's and Emax may be determined by non-linear regression with a sigmoidal fit curve.
Following the challenge of the preadipocytes, cells may be lysed with lysis buffer (Bayer Diagnostics) containing the aP2 oligonucleotides. After a 15 minute incubation at 53° C. or 30 minutes at 37° C. incubator, 70 ul of the lysis buffer from each well may be added to a corresponding capture well (preincubated with 70 ul of blocking buffer (Bayer Diagnostics)). The capture plate may be incubated overnight at 53° C. in a plate incubator (Bayer Diagnostics). After this incubation, the bDNA and labeled probes may be annealed as directed by the manufacturer. Following a 30-minute incubation with the luminescent alkaline phosphatase substrate, dioxitane, the luminescence may be quantitated in a Dynex MLX microtiter plate luminometer. Oligonucleotide probes designed to anneal to the aP2 mRNA and function in the bDNA mRNA detection system are designed with ProbeDesigner software (Bayer Diagnostics). This software package analyzes a target sequence of interest with a series of algorithms in order to determine which regions of the sequence can perform as locations for capture, label, or spacer probe annealing. The sequences of the oligonucleotides are as follows: […]

PPARδ = biological target: T3, PPARδ (Homo sapiens, UniProt Q03181); assay: Transfection Assay for PPARδ Receptors (PPAR-Gal4 receptor / Gal4-Luciferase Reporter, HEK293 cells); format: cell-based; conditions: for PPARδ FI: fold induction, unbracketed values, PPARδ standard FI = 36.1
T3 sequence (Q03181 171-441 limits assumed): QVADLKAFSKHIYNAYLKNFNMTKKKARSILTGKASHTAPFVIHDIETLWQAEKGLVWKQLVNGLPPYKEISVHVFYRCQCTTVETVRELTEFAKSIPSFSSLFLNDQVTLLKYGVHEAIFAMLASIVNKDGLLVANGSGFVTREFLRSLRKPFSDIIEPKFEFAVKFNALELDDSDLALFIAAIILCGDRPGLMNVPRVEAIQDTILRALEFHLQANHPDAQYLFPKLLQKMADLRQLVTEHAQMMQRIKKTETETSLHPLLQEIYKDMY
Experimental: Transfection Assay for PPARδ Receptors
HEK293 cells were grown in DMEM/F-12 Media supplemented with 10% FBS and glutamine (GIBCOBRL). The cells were co-transfected with DNA for PPAR-Gal4 receptor and Gal4-Luciferase Reporter using the DMRIE-C Reagent. On the following day, the DNA-containing medium were replaced with 5% Charcoal treated FBS growth medium. After six hours, cells were seeded in 96 well plate and incubated at 37° C. in CO2 incubator overnight. Cells were challenged by test compounds and incubated for 24 hours at 37° C. in 5% CO2 incubator. Luciferase activity was assayed using the Steady-Glo Luciferase Assay Kit from Promega. DMRIE-C Reagent was purchased from GIBCO Cat. No. 10459-014. OPTI-MEM I Reduced Serum Medium was purchased from GIBCO Cat. No. 31985. Steady-Glo Luciferase Assay Kit was obtained from Promega Part# E254B.

[1] = Comparison of activity of (R) and (S) isomer (test not stated); conditions: chiral center on C-2 of the indane ring
Excerpt: Unless otherwise mentioned or indicated, the chemical designation of compounds denotes the mixture of all possible stereochemically isomeric forms, said mixtures containing all diastereomers and enantiomers of the basic molecular structure. More in particular, stereogenic centers may have the (R)- or (S)-configuration; substituents on bivalent cyclic saturated radicals may have either the cis- or trans-configuration. The invention encompasses stereochemically isomeric forms including diastereoisomers, as well as mixtures thereof in any proportion of the disclosed compounds. The disclosed compounds may also exist in their tautomeric forms. Such forms although not explicitly indicated in the above and following formulae are intended to be included within the scope of the present invention. For example, in compound 2.1 or Example 3, there is a chiral center on the C-2 of the indane ring.

CCCCCN(C(=O)Nc1ccc(C(C)C)cc1)C1Cc2ccc(SC(C)(C)C(=O)O)cc2C1 (stereo not shown) [Example 10, 2-{2-[3-(4-Isopropylphenyl)-1-(pentyl)ureido]indan-5-ylsulfanyl}-2-methylpropionic acid]
EC50 (PPARα): 165 nM
PPARγ FI (PPARγ): 5.1

CCCCCN(C(=O)Nc1ccc(C(C)(C)C)cc1)C1Cc2ccc(SC(C)(C)C(=O)O)cc2C1 (stereo not shown) [Example 11, 2-{2-[3-(4-tert-butylphenyl)-1-(pentyl)ureido]indan-5-ylsulfanyl}-2-methylpropionic acid]
EC50 (PPARα): 173 nM
PPARγ FI (PPARγ): 6.1

CCCCCN(C(=O)Nc1ccc(SC(F)(F)F)cc1)C1Cc2ccc(SC(C)(C)C(=O)O)cc2C1 (stereo not shown) [Example 5, 2-Methyl-2-{2-[1-pentyl-3-(4-trifluoromethylsulfanylphenyl)ureido]indan-5-ylsulfanyl}propionic acid]
PPARγ FI (PPARγ): 4.0
PPARδ FI (PPARδ): 2.5

CCN(C(=O)Nc1ccc(C(C)C)cc1)C1Cc2ccc(SC(C)(C)C(=O)O)cc2C1 (stereo not shown) [Example 6, 2-{2-[1-Ethyl-3-(4-isopropylphenyl)ureido]indan-5-ylsulfanyl}-2-methylpropionic acid]
PPARγ FI (PPARγ): 1.9
PPARδ FI (PPARδ): 3.6

CCN(C(=O)Nc1ccc(OC(F)(F)F)cc1)[C@@H]1Cc2ccc(SC(C)(C)C(=O)O)cc2C1 [Example 3, (R)-2-{2-[1-Ethyl-3-(4-trifluoromethoxyphenyl)ureido]indan-5-ylsulfanyl}-2-methylpropionic acid]
EC50 (PPARα): 8 nM
activity of the (R) isomer relative to the (S) isomer [1]: more active than the (S) isomer
EC50 (PPARγ; bracketed values): > 10 µM
EC50 (PPARδ; bracketed values): > 10 µM

CCN(C(=O)Nc1ccc(OC(F)(F)F)cc1)C1Cc2ccc(SC(C)(C)C(=O)O)cc2C1 (stereo not shown) [Example 2, 2-{2-[1-Ethyl-3-(4-trifluoromethoxyphenyl)ureido]indan-5-ylsulfanyl}-2-methylpropionic acid]
PPARγ FI (PPARγ): 0.24
PPARδ FI (PPARδ): 4.2

CCCCCN(C(=O)Nc1ccc(N(C)C)cc1)C1Cc2ccc(SC(C)(C)C(=O)O)cc2C1 (stereo not shown) [Example 9, 2-{2-[3-(4-Dimethylaminophenyl)-1-pentylureido]indan-5-ylsulfanyl}-2-methylpropionic acid]
PPARγ FI (PPARγ): 2.9
PPARδ FI (PPARδ): 1.0
